Entries after “also recorded” stand apart in the source; their conditions may differ.
Assays:
5-LO [1] = target: T1, 5-LO (Homo sapiens, UniProt P09917); assay: Biosynthesis of 5-LO products in HEK293 cells expressing 5-LO and FLAP (A23187 + arachidonic acid); format: cell-based; set-up: expressed in transfected cells; host or cells: HEK293; details: 1 μM compound, 10 μM A23187 + 10 μM arachidonic acid, 15 min
T1 sequence (P09917 1-674): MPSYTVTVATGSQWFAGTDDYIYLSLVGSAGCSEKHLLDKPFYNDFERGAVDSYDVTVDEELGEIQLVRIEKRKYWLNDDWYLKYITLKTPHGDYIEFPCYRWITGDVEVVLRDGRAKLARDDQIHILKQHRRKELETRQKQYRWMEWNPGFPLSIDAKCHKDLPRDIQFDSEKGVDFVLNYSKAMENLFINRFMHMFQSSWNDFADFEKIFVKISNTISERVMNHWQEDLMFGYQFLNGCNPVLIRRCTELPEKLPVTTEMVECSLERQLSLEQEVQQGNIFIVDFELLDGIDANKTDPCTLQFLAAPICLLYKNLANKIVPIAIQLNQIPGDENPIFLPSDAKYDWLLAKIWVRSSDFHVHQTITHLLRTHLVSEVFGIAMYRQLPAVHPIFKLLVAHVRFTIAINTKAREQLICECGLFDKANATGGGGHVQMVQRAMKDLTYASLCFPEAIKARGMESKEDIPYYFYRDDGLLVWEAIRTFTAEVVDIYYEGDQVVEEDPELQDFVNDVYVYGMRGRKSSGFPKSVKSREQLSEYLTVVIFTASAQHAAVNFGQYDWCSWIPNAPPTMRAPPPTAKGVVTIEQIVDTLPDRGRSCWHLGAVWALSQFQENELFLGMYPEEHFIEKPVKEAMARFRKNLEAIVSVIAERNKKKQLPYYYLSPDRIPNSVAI
Experimental: HEK293 cells expressing both 5-LO and the 5-lipoxygenase activating protein (FLAP) were generated as previously reported. For cell stimulation of 5-LO products, transfected HEK293 cells were collected following trypsinization and washed and the cell pellet was resuspended in Hank's balanced salt solution (HBSS, Lonza) containing 1.6 mM CaCl2 at a concentration of 5 × 10^5 cells/ml. Cells were preincubated with each compound at the indicated concentration for 5 min at 37°C. Cells were then stimulated for 15 minutes at 37°C with the addition of 10 μM calcium ionophore A23187 (Sigma-Aldrich) and 10 μM arachidonic acid (Cayman Chemical). Stimulations were stopped by adding 0.5 volume of cold MeOH:MeCN (1 : 1) containing 100 ng/ml of 19-OH prostaglandin B2 (PGB2) as internal standard. Samples were then processed and 5-LO products were analyzed by reversed-phase high-performance liquid chromatography (RP-HPLC) as described previously.
To evaluate CAPE analogues as potential inhibitors of the biosynthesis of 5-LO products, a first series of experiments was performed in HEK293 cells expressing both 5-LO and FLAP as previously described. HEK293 cells were first preincubated with the test compounds (1 μM), then stimulated in the presence of arachidonic acid and calcium ionophore A23187 to induce the biosynthesis of 5-LO products (Figure 2(a)). […] Based on these criteria, compounds 9, 13, 14, 15, 16, and 19 were selected for subsequent analyses.
Figure 2 Effect of the test compounds on the biosynthesis of 5-LO products in transfected HEK293 cells (a) and thapsigargin-stimulated PMNL (b). (a) HEK293 cells expressing both 5-LO and FLAP were incubated in presence of the indicated compounds (1 μM) or their diluent (control, 0.5% DMSO) for 5 min, then biosynthesis of 5-LO products was initiated with the addition of 10 μM calcium ionophore A23187 and 10 μM arachidonic acid for 15 min. After stimulation, reactions were stopped and samples were processed for analysis of 5-LO products by RP-HPLC. Total 5-LO products measured represent the sum of LTB4, its trans isomers, and 5-hydroxyeicosatetraenoic acid. (b) Freshly isolated human PMNL were incubated in presence of test compounds (or their diluent control, DMSO 0.5%) at the indicated concentrations for 5 min. Biosynthesis of the 5-LO products was initiated with the addition of 1 μM of thapsigargin, followed by a 15 min incubation period at 37°C. The stimulation was then stopped and samples were processed for RP-HPLC analysis and total 5-LO products quantification. Total 5-LO products measured represent the sum of LTB4, its trans isomers, 20-COOH- and 20-OH-LTB4 and 5-hydroxyeicosatetraenoic acid. Data are expressed as means ± SEM of at least 3 independent experiments. ^∗Different from control, as determined by one-way ANOVA with Dunnett's multiple comparison test (p < 0.05).

arachidonic acid release = details: cited from earlier work
5-LO [2] = target: T1, 5-LO; set-up: endogenous in cells; host or cells: human polymorphonuclear leukocytes (PMNL) isolated from whole blood; method as in PMID 22347509; details: cited from earlier work

Compound	Inhibition of biosynthesis of 5-LO products in transfected HEK293 cells (5-LO [1])	Inhibition of liberation of cellular arachidonic acid (previously shown) (arachidonic acid release)	Inhibition of biosynthesis of 5-LO products in whole blood (previous studies) (5-LO [2])
COC(=O)/C=C/c1ccc(O)c(O)c1 [Compound 3]	without inhibitory activity	–	–
CCOC(=O)/C=C/c1ccc(O)c(O)c1 [Compound 4, ethyl caffeate]	without inhibitory activity	–	–
O=C(/C=C/c1ccc(O)c(O)c1)Oc1ccccc1 [Compound 10]	not as effective at inhibiting 5-LO as CAPE (2)	–	–
O=C(/C=C/c1ccc(O)c(O)c1)OCc1ccccc1 [Compound 11]	not as effective at inhibiting 5-LO as CAPE (2)	–	–
CC(c1cc2ccccc2s1)N(O)C(N)=O (stereo not shown) [Zileuton (1), zileuton, reference compound]	less effective than the selected compounds; also recorded: significantly inhibited the biosynthesis of 5-LO products	previously shown to inhibit the liberation of cellular arachidonic acid	slightly better inhibitor of the biosynthesis of 5-LO products in whole blood than CAPE (2)

Reference: article PMC5478869, “New Hydroxycinnamic Acid Esters as Novel 5-Lipoxygenase Inhibitors That Affect Leukotriene Biosynthesis” (Mediators of Inflammation, 2017)
